Results on 1 compound are retold here after ChEMBL document CHEMBL5543122, “Discovery of HC-7366: An Orally Bioavailable and Efficacious GCN2 Kinase Activator” (J Med Chem, 2024).

A short description of series [1]: Intrinsic clearance in rat hepatocytes assessed per 10^4 cells at 1 uM measured upto 120 mins by UPLC-MS/MS analysis. The series is classed as ADME, cell-based, Hepatocyte. To be noted: 2 h.
The nature of series [2]: Volume of distribution at steady state in Sprague-Dawley rat at 1 mg/kg, iv measured upto 24 hrs. It counts as ADME, organism-based. The following applies: in vivo, read-out: Vdss.
A short description of series [3]: Half-life in Sprague-Dawley rat at 1 mg/kg, iv measured upto 24 hrs. It counts as ADME, organism-based. The following applies: in vivo.
Series [4] in a line: Unbound Cmax in Sprague-Dawley rat at 3 mg/kg, po measured upto 24 hrs. To be noted: in vivo. The series is classed as ADME, organism-based.
Series [5] has as its target T1, Dual specificity mitogen-activated protein kinase kinase 5 (Homo sapiens, UniProt Q13163).
T1 sequence (Q13163 whole entry): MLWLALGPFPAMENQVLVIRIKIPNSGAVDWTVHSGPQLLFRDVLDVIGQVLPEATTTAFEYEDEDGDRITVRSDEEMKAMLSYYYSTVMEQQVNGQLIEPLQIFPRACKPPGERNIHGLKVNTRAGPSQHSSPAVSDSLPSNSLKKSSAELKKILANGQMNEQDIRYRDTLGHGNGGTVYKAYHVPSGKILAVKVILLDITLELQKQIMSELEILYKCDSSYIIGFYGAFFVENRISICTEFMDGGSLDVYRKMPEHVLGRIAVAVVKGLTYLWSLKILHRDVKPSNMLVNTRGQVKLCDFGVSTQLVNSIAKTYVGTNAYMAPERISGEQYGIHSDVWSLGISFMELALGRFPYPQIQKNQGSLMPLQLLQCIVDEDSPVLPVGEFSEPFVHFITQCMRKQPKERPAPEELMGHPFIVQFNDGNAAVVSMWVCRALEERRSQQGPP
As to the kind of experiment: Inhibition of MAP2K5 in human MOLM16 cells. The series is classed as cell-based.

Series [6] deals with T2, Serine/threonine-protein kinase Nek1 (Homo sapiens, UniProt Q96PY6).
T2 sequence (Q96PY6 whole entry): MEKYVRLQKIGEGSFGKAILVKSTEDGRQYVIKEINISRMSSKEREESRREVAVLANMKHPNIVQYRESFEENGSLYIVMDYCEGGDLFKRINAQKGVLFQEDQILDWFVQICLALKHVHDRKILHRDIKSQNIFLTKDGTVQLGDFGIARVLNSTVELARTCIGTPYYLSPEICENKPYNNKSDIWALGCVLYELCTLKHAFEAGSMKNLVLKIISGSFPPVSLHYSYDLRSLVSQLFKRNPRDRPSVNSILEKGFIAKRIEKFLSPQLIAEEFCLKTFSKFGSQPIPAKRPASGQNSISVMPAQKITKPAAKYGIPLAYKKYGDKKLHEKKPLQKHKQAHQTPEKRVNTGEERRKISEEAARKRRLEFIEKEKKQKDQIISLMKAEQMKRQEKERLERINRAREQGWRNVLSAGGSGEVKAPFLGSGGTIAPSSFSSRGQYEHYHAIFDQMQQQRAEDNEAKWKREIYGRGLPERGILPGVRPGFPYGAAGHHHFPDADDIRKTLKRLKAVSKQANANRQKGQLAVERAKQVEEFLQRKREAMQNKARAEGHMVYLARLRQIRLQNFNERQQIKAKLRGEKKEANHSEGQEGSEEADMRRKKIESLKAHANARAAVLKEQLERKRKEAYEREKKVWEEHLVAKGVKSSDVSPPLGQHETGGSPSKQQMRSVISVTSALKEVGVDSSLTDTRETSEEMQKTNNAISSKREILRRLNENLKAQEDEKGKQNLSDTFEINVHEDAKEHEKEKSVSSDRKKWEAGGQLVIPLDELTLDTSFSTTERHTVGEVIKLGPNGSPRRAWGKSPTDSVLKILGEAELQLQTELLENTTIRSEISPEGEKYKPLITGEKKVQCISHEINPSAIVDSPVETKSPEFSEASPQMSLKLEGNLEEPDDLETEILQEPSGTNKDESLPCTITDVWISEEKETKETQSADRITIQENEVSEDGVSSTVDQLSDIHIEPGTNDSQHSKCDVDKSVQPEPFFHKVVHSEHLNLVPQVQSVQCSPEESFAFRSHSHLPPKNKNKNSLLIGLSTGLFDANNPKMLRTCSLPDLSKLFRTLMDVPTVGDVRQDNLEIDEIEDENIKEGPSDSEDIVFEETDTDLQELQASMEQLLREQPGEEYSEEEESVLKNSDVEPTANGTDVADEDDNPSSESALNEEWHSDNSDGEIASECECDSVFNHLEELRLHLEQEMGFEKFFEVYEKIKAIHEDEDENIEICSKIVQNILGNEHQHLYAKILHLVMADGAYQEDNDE
As to the kind of experiment: Inhibition of NEK1 in human MOLM16 cells. It counts as cell-based.

Series [7] can be described thus: Volume of distribution at steady state in BALB/c mouse at 3 mg/kg, po and 1 mg/kg, iv measured upto 24 hrs. It counts as ADME, organism-based. The following applies: in vivo.
Series [8] relates to HT-1080. Nature of the series: Antitumor activity against human HT-1080 cells xenografted in BALB/c nude mouse assessed as mean tumor growth inhibition at 0.3 mg/kg administered twice a day for 14 days. It counts as functional. To be noted: HT-1080, 336 h, time 14 day, read-out: TGI. On the technique in general: A xenograft is tissue or cells of one species grown in another, often human tumour cells in immunodeficient mice.

Series [9] concerns HT-1080. Nature of the series: Antitumor activity against human HT-1080 cells xenografted in BALB/c nude mouse assessed as mean tumor growth inhibition at 1 mg/kg administered twice a day for 14 days. The series is classed as functional. To be noted: HT-1080, 336 h, time 14 day, read-out: TGI.
In series [10] the test system is HT-1080. Nature of the series: Antitumor activity against human HT-1080 cells xenografted in BALB/c nude mouse assessed as mean tumor growth inhibition at 3 mg/kg administered twice a day for 14 days. The series is classed as functional. To be noted: HT-1080, 336 h, time 14 day, read-out: TGI.
Series [11] is described as follows: Toxicity in BALB/c nude mouse xenografted with human MOLM16 cells assessed as change in body weight at 0.3 to 3 mg/kg administered twice a day for 17 days. The series is classed as organism-based. To be noted: in vivo, 408 h, dose 0.3-3 mg/kg, time 17 day.
The nature of a further series: physchem. The following applies: FaSSIF.

Converted amounts (≈) assume the structure as drawn.

Description for physchem: Thermodynamic solubility in FaSSIF at 1 mg incubated for 24 hrs by UPLC-MS/MS analysis

Broadly, the half-life is how long it takes for the measured level to halve. In general, IC50 refers to the concentration that inhibits the measured activity by half. As a reminder, the thermodynamic solubility is the concentration in solution at equilibrium with solid. `CNC(=O)c1ncn2cc(-c3c(F)ccc(NS(=O)(=O)c4cc(Cl)cnc4OC)c3F)ncc12` yielded a CLH in series [1] of 3.5 µL/min. The Vd in series [2] was 0.093 L/kg. For the same compound, the half-life in series [3] was 6.3 h. The compound also had a fCmax in series [4] of 7.1 nM. Moreover, the results for the IC50 in series [5] and in [6] were 2.9 µM and 9.3 µM, respectively. In series [7], this compound showed a Vdss of 0.12 L/kg. In addition, the inhibition in vivo at 0.3 mg/kg in the series with HT-1080 [8] is 18%. Further, in the series on HT-1080 [9], the inhibition in vivo at 1 mg/kg turned out to be 80%. Besides, the inhibition in vivo at 3 mg/kg with HT-1080 [10] came to 84%. Further, the Activity entry in series [11] is recorded as “Non-Toxic”. This compound displayed a thermodynamic solubility at 24 h in the series “physchem” of 1.8 µM (≈ 0.916 µg/mL).
